Measured values published in patent publication US20070170056A1, “Microscale electrochemical cell and methods incorporating the cell” (priority 2006, published 2007).

Format: physicochemical
Conditions: vs Pt reference electrode; mobile phase 50 mM LiClO4 in 50:50 water/ACN; porous graphitic working electrode
Procedure: A standard phenol mixture (100 μM) was dissolved in (50:50) water/ACN to form a sample solution. Mobile phase A consisted of 50 mM LiClO4 in water, while mobile phase B consisted of 50 mM LiClO4 in ACN; a 50:50 mix was used. The sample solution was introduced into an Eksigent ExpressLC system through a micro-injector (40 nL) and separated on an HPLC column (Eksigent Technologies, 300 μm i.d., 15 cm; 3 μm C18 particles). The eluent from the column was run sequentially through a low-dispersion UV detector (Eksigent Technologies) and then through an electrochemical detection system according to an embodiment of the present invention.
The electrochemical detection system had two independent cells in series, connected by a fused silica capillary.

| SMILES | E1/2 |
| --- | --- |
| Oc1ccc(Cl)cc1Cl [2,4-dichlorophenol] | 305 mV |
| Cc1ccc(O)c(C)c1 [2,4-dimethylphenol] | 304 mV |
| Oc1ccccc1Cl [2-chlorophenol] | 139 mV |
| Cc1cc(O)ccc1Cl [4-chloro-3-methylphenol] | 314 mV |
| Oc1ccccc1 [phenol] | 336 mV |
